In patent publication US20260115250A1, “METHODS OF TREATING AGE-RELATED MACULAR DEGENERATION” (Character Biosciences, Inc., priority 2022, published 2026):
Ends that are not written are not given here. Peptide text beside a SMILES is read from it.

Assays:
LDLR [1] = target: T1, LDLR (Homo sapiens, UniProt P01130); assay: KD (µM)
Source text: First copying reader's note: Left of three side-by-side panels of FIG. 23; the KD cells hold value ± error together. Where the first naming reader finds the target: description_of_the_figure: FIG. 23 is a table showing the binding kinetics results of LDLR binding assays (SPR)
Target sequence in this assay (P01130 22-860 limits assumed): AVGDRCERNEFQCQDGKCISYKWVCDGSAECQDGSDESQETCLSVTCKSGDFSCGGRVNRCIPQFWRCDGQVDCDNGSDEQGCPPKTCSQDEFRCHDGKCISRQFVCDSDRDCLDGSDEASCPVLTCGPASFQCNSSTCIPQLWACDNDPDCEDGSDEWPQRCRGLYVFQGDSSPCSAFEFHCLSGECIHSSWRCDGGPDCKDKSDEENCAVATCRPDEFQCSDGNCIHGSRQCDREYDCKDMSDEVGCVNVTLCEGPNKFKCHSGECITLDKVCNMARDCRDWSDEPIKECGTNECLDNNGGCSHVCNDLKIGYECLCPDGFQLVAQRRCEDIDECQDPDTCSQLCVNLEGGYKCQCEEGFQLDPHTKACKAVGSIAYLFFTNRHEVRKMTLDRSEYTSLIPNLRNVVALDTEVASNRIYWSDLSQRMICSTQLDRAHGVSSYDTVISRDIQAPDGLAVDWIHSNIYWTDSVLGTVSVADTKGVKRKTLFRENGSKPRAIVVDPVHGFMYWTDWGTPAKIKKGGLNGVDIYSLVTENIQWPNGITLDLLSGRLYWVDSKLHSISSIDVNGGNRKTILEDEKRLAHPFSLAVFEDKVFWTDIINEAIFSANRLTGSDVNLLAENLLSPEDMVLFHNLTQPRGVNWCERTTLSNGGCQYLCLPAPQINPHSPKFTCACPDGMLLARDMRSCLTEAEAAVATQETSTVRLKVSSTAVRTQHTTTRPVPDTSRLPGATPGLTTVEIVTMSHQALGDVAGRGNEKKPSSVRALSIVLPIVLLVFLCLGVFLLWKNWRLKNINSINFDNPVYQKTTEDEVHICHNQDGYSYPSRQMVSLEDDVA

LDLR [2] = target: T1, LDLR; assay: KD, Peptide (μM)
Target sequence in this assay (P01130 22-860 limits assumed): as above
Source text: Title: Buffer: HBS + 0.005% P20
Head of the field: KD, Peptide (μM)
First copying reader's note: KD values are for binding to LDLR by SPR, peptide alone versus peptide:DMPC lipid complex; the table continues on FIG. 24B.

LDLR [3] = target: T1, LDLR; assay: LDLR binding (SPR), high surfactant preparation; conditions: high surfactant preparation (HBS-P+), 1:1 binding model; read-out: binding KD to LDLR
Outline: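 Multi-cycle kinetics fitted 1:1: peptide flowed at 30 μL/sec for 120 seconds over immobilised LDLR (amine coupling, CM5, 1000 RU) in running buffer HBS-P+ plus 1 mM CaCl2. Five concentrations per peptide, 1:3 serial from 5 μM; surface regenerated between cycles with 50 mM NaOH/100 mM EDTA.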
Target sequence in this assay (P01130 22-860): as the sequence (P01130 22-860 limits assumed) above

Compound: CC(C)C[C@H](NC(=O)[C@H](CCCNC(=N)N)NC(=O)[C@H](CCCCN)NC(=O)[C@H](CCC(N)=O)NC(=O)[C@H](CC(C)C)NC(=O)[C@H](CC(=O)O)NC(=O)[C@H](CC(=O)O)NC(=O)[C@H](C)NC(=O)[C@H](CC(=O)O)NC(=O)[C@H](CCCNC(=N)N)NC(=O)[C@H](CC(C)C)NC(=O)[C@H](CC(C)C)NC(=O)[C@H](CCCNC(=N)N)NC(=O)[C@H](CCCCN)NC(=O)[C@H](CCCNC(=N)N)NC(=O)[C@H](CC(C)C)NC(=O)[C@H](CCCCN)NC(=O)[C@H](CCCNC(=N)N)NC(=O)[C@H](CC(C)C)NC(=O)[C@@H](N)Cc1c[nH]cn1)C(=O)N[C@@H](C)C(=O)N[C@H](C(=O)N[C@@H](Cc1ccc(O)cc1)C(=O)N[C@@H](CCC(N)=O)C(=O)N[C@@H](C)C(=O)NCC(=O)N[C@@H](C)C(=O)N[C@@H](CCCNC(=N)N)C(=O)N[C@@H](CCC(=O)O)C(=O)NCC(=O)N[C@@H](C)C(=O)N[C@@H](CCC(=O)O)C(=O)N[C@@H](CCCNC(=N)N)C(=O)O)C(C)C [T-043] (H-HLRKLRKRLLRDADDLQKRLAVYQAGAREGAER-OH; N-terminus and C-terminus assumed)
- Kd (LDLR [1]): 48.6 µM
- Kd (LDLR [2]): 840 ± 1150 µM

Compound: CC(C)C[C@H](NC(=O)[C@H](CCCNC(=N)N)NC(=O)[C@H](CCCCN)NC(=O)[C@H](CCC(N)=O)NC(=O)[C@H](CC(C)C)NC(=O)[C@H](CC(=O)O)NC(=O)[C@H](CC(=O)O)NC(=O)[C@H](C)NC(=O)[C@H](CC(=O)O)NC(=O)[C@H](CCCNC(=N)N)NC(=O)[C@H](CC(C)C)NC(=O)[C@H](CC(C)C)NC(=O)[C@H](CCCNC(=N)N)NC(=O)[C@H](CCCCN)NC(=O)[C@H](CCCNC(=N)N)NC(=O)[C@H](CC(C)C)NC(=O)[C@H](CCCCN)NC(=O)[C@H](CCCNC(=N)N)NC(=O)[C@H](CC(C)C)NC(=O)[C@@H](N)Cc1c[nH]cn1)C(=O)N[C@@H](C)C(=O)N[C@H](C(=O)N[C@@H](Cc1ccc(O)cc1)C(=O)N[C@@H](CCC(N)=O)C(=O)N[C@@H](C)C(=O)O)C(C)C [T-045] (H-HLRKLRKRLLRDADDLQKRLAVYQA-OH; N-terminus and C-terminus assumed)
- Kd (LDLR [1]): 71.2 ± 31.8 µM
- Kd (LDLR [2]): 11800 ± 1250 µM

Compound: CC(C)C[C@H](NC(=O)[C@H](CCCNC(=N)N)NC(=O)[C@H](CCCCN)NC(=O)[C@H](CCC(N)=O)NC(=O)[C@H](CC(C)C)NC(=O)[C@H](CC(=O)O)NC(=O)[C@H](CC(=O)O)NC(=O)[C@H](C)NC(=O)[C@H](CC(=O)O)NC(=O)[C@H](CCCNC(=N)N)NC(=O)[C@H](C)NC(=O)[C@H](CC(C)C)NC(=O)[C@H](CCCNC(=N)N)NC(=O)[C@H](CCCCN)NC(=O)[C@H](CCCNC(=N)N)NC(=O)[C@H](CC(C)C)NC(=O)[C@H](CCCCN)NC(=O)[C@H](CCCNC(=N)N)NC(=O)[C@H](CC(C)C)NC(=O)[C@H](Cc1c[nH]cn1)NC(=O)[C@H](CCCNC(=N)N)NC(=O)[C@H](C)NC(=O)[C@@H](N)CC(C)C)C(=O)N[C@@H](C)C(=O)N[C@H](C(=O)N[C@@H](Cc1ccc(O)cc1)C(=O)N[C@@H](CCC(N)=O)C(=O)N[C@@H](C)C(=O)NCC(=O)N[C@@H](C)C(=O)N[C@@H](CCCNC(=N)N)C(=O)N[C@@H](CCC(=O)O)C(=O)NCC(=O)N[C@@H](C)C(=O)N[C@@H](CCC(=O)O)C(=O)N[C@@H](CCCNC(=N)N)C(=O)O)C(C)C [T-047] (H-LARHLRKLRKRLARDADDLQKRLAVYQAGAREGAER-OH)
- Kd (LDLR [1]): 3.26 ± 0.23 µM
- Kd (LDLR [3]): < 10 µM

Compound: CC(C)C[C@H](NC(=O)[C@H](CCCNC(=N)N)NC(=O)[C@H](CC(=O)O)NC(=O)[C@H](CCC(N)=O)NC(=O)[C@H](CC(C)C)NC(=O)[C@H](CCCCN)NC(=O)[C@H](CC(=O)O)NC(=O)CNC(=O)[C@H](CC(=O)O)NC(=O)[C@H](CCCNC(=N)N)NC(=O)[C@H](CC(C)C)NC(=O)[C@H](CC(C)C)NC(=O)[C@H](CCCNC(=N)N)NC(=O)[C@H](CCCCN)NC(=O)[C@H](CCCNC(=N)N)NC(=O)[C@H](CC(C)C)NC(=O)[C@H](CCCCN)NC(=O)[C@H](CCCNC(=N)N)NC(=O)[C@H](CC(C)C)NC(=O)[C@H](Cc1c[nH]cn1)NC(=O)[C@H](CO)NC(=O)[C@H](C)NC(=O)[C@@H](N)CC(C)C)C(=O)N[C@@H](C)C(=O)N[C@@H](CCC(=O)O)C(=O)N[C@@H](Cc1ccc(O)cc1)C(=O)N[C@@H](CCC(N)=O)C(=O)N[C@@H](C)C(=O)N[C@@H](CCCNC(=N)N)C(=O)N[C@@H](C)C(=O)N[C@@H](CCCCN)C(=O)N[C@@H](CCC(=O)O)C(=O)N[C@@H](C)C(=O)N[C@@H](Cc1ccccc1)C(=O)N[C@@H](CC(=O)O)C(=O)N[C@@H](CCCNC(=N)N)C(=O)O [T-048]
- Kd (LDLR [2]): 11.4 ± 5.29 µM
- Kd (LDLR [3]): < 10 µM

Compound: CC(C)C[C@H](NC(=O)[C@H](CCCNC(=N)N)NC(=O)[C@H](CC(=O)O)NC(=O)[C@H](CCC(N)=O)NC(=O)[C@H](CC(C)C)NC(=O)[C@H](CCCCN)NC(=O)[C@H](CC(=O)O)NC(=O)CNC(=O)[C@H](CC(=O)O)NC(=O)[C@H](CCCNC(=N)N)NC(=O)[C@H](C)NC(=O)[C@H](CC(C)C)NC(=O)[C@H](CCCNC(=N)N)NC(=O)[C@H](CCCCN)NC(=O)[C@H](CCCNC(=N)N)NC(=O)[C@H](CC(C)C)NC(=O)[C@H](CCCCN)NC(=O)[C@H](CCCNC(=N)N)NC(=O)[C@H](CC(C)C)NC(=O)[C@H](Cc1c[nH]cn1)NC(=O)[C@H](CCCNC(=N)N)NC(=O)[C@H](C)NC(=O)[C@@H](N)CC(C)C)C(=O)N[C@@H](C)C(=O)N[C@@H](CCC(=O)O)C(=O)N[C@@H](Cc1ccc(O)cc1)C(=O)N[C@@H](CCC(N)=O)C(=O)N[C@@H](C)C(=O)N[C@@H](CCCNC(=N)N)C(=O)N[C@@H](C)C(=O)N[C@@H](CCCCN)C(=O)N[C@@H](CCC(=O)O)C(=O)N[C@@H](C)C(=O)N[C@@H](Cc1ccccc1)C(=O)N[C@@H](CC(=O)O)C(=O)N[C@@H](CCCNC(=N)N)C(=O)O [T-049] (H-LARHLRKLRKRLARDGDKLQDRLAEYQARAKEAFDR-OH)
- Kd (LDLR [1]): 3.26 ± 0.2 µM
- Kd (LDLR [3]): < 10 µM

Compound: CC(C)C[C@H](NC(=O)[C@H](CCCNC(=N)N)NC(=O)[C@H](CC(=O)O)NC(=O)[C@H](CCC(N)=O)NC(=O)[C@H](CC(C)C)NC(=O)[C@H](CCCCN)NC(=O)[C@H](CC(=O)O)NC(=O)CNC(=O)[C@H](CC(=O)O)NC(=O)[C@H](CCCNC(=N)N)NC(=O)[C@H](CC(C)C)NC(=O)[C@H](CC(C)C)NC(=O)[C@H](CCCNC(=N)N)NC(=O)[C@H](CCCCN)NC(=O)[C@H](CCCNC(=N)N)NC(=O)[C@H](CC(C)C)NC(=O)[C@H](CCCCN)NC(=O)[C@H](CCCNC(=N)N)NC(=O)[C@H](CC(C)C)NC(=O)[C@@H](N)Cc1c[nH]cn1)C(=O)N[C@@H](C)C(=O)N[C@H](C(=O)N[C@@H](Cc1ccc(O)cc1)C(=O)N[C@@H](CCC(N)=O)C(=O)N[C@@H](C)C(=O)N[C@@H](CCCNC(=N)N)C(=O)N[C@@H](C)C(=O)N[C@@H](CCCCN)C(=O)N[C@@H](CCC(=O)O)C(=O)N[C@@H](C)C(=O)N[C@@H](Cc1ccccc1)C(=O)N[C@@H](CC(=O)O)C(=O)N[C@@H](CCCNC(=N)N)C(=O)O)C(C)C [T-053] (H-HLRKLRKRLLRDGDKLQDRLAVYQARAKEAFDR-OH; N-terminus and C-terminus assumed)
- Kd (LDLR [1]): 121 ± 14.9 µM
- Kd (LDLR [2]): 43000 ± 34000 µM

Compound: LVQYRGEVQAMLGQSTEELRVRLASHLRKLRKRLLRDADDLQ [T-071]
- Kd (LDLR [2]): 18.5 ± 2.69 µM
